Calls of active or inactive are those of the source. No cut-off for these calls is given here.
Tests used:
[1] = target: Cyclin-dependent kinase 8 (Homo sapiens, UniProt P49336); test: Inhibition of CDK8 at compound concentration of 10.0 uM using the ScanMax (DiscoverX)
[2] = target: GABA-A receptor; anion channel; test: GPCRScan assay: inhibition of GABAA/BZP; type: protein-complex assay, Rattus norvegicus; set-up: radioligand conc. used [nm] 0.6 – 4.0, parental cells brain tissue
[3] = target: T1, Macrophage migration inhibitory factor (Homo sapiens) (UniProt P14174); test: Apoptosis inhibition
T1 sequence (whole entry): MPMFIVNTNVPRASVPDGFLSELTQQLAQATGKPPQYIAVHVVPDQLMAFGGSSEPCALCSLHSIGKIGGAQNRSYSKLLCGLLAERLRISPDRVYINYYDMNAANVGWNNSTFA

[4] = target: Macrophage migration inhibitory factor (Homo sapiens, UniProt P14174); test: Scintillation proximity assay (SPA) measurement of selective [3H]-BTZO-1 binding to hMIF-His
[5] = target: Macrophage migration inhibitory factor (Rattus norvegicus, UniProt P30904); test: Scintillation proximity assay (SPA) measurement of selective [3H]-BTZO-1 binding to rMIF-His
[6] = target: Dual specificity protein kinase CLK1 (Homo sapiens) (UniProt P49759); conditions: Compound concentration 1000.0 nM
[7] = target: T2, Death-associated protein kinase 3 (Homo sapiens, UniProt O43293); conditions: Compound concentration 1000.0 nM
Target sequence in this assay (O43293 whole entry, looked up): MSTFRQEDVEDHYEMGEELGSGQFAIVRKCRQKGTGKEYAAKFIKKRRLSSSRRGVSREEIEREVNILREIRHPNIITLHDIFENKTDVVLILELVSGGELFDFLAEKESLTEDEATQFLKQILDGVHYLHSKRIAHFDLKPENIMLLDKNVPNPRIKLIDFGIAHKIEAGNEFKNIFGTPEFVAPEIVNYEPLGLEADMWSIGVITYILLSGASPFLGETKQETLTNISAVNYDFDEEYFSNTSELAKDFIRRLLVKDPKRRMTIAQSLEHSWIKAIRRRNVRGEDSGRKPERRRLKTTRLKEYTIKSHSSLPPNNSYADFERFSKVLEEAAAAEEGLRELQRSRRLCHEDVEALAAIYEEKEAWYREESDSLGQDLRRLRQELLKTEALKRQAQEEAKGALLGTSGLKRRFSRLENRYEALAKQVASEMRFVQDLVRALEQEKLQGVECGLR

[8] = target: Mitogen-activated protein kinase kinase kinase 15 (Homo sapiens) (UniProt Q6ZN16); conditions: Compound concentration 1000.0 nM
[9] = target: Ribosomal protein S6 kinase alpha-6 (Homo sapiens) (UniProt Q9UK32); conditions: Compound concentration 1000.0 nM
[10] = target: Serine/threonine-protein kinase ULK1 (Homo sapiens) (UniProt O75385); conditions: Compound concentration 1000.0 nM
[11] = target: Serine/threonine-protein kinase 32A (Homo sapiens) (UniProt Q8WU08); conditions: Compound concentration 1000.0 nM
[12] = target: Tyrosine-protein kinase Yes (Homo sapiens) (UniProt P07947); conditions: Compound concentration 1000.0 nM
[13] = target: 5-hydroxytryptamine receptor 6 (Homo sapiens) (UniProt P50406); conditions: Compound concentration 10.0 uM
[14] = target: GABA-A receptor; anion channel (Rattus norvegicus) (UniProt O09028+P15431+P18506+P18508+P19969+P20236+P23574+P23576+P28471+P28473+P30191+P62813+P63079+P63138+Q91ZM7+Q9ES14); conditions: Compound concentration 10.0 uM
[15] = target: Muscarinic acetylcholine receptor M1 (Homo sapiens) (UniProt P11229); conditions: Compound concentration 10.0 uM
[16] = target: Sigma intracellular receptor 2 (Homo sapiens) (UniProt Q5BJF2); conditions: Compound concentration 10.0 uM
[17] = target: Sigma non-opioid intracellular receptor 1 (Homo sapiens) (UniProt Q99720); conditions: Compound concentration 10.0 uM
[18] = target: T2, Death-associated protein kinase 3; test: Inhibition of DAPK3 at compound concentration of 10.0 uM using the ScanMax (DiscoverX)
Target sequence in this assay (O43293 whole entry): as the sequence (O43293 whole entry, looked up) above

[19] = target: G protein-coupled receptor kinase 3 (Homo sapiens, UniProt P35626); test: Inhibition of GRK3 at compound concentration of 10.0 uM using the ScanMax (DiscoverX)
[20] = target: 5-hydroxytryptamine receptor 1D (Homo sapiens) (UniProt P28221); conditions: Compound concentration 10.0 uM
[21] = target: 5-hydroxytryptamine receptor 5A (Homo sapiens) (UniProt P47898); conditions: Compound concentration 10.0 uM
[22] = target: 5-hydroxytryptamine receptor 7 (Homo sapiens) (UniProt P34969); conditions: Compound concentration 10.0 uM
[23] = target: Histamine H1 receptor (Homo sapiens) (UniProt P35367); conditions: Compound concentration 10.0 uM
[24] = target: Alpha-1A adrenergic receptor (Homo sapiens) (UniProt P35348); conditions: Compound concentration 10.0 uM
[25] = target: Muscarinic acetylcholine receptor M4 (Homo sapiens) (UniProt P08173); conditions: Compound concentration 10.0 uM

Sequence of Ribosomal protein S6 kinase alpha-6 (Homo sapiens) (Q9UK32 whole entry): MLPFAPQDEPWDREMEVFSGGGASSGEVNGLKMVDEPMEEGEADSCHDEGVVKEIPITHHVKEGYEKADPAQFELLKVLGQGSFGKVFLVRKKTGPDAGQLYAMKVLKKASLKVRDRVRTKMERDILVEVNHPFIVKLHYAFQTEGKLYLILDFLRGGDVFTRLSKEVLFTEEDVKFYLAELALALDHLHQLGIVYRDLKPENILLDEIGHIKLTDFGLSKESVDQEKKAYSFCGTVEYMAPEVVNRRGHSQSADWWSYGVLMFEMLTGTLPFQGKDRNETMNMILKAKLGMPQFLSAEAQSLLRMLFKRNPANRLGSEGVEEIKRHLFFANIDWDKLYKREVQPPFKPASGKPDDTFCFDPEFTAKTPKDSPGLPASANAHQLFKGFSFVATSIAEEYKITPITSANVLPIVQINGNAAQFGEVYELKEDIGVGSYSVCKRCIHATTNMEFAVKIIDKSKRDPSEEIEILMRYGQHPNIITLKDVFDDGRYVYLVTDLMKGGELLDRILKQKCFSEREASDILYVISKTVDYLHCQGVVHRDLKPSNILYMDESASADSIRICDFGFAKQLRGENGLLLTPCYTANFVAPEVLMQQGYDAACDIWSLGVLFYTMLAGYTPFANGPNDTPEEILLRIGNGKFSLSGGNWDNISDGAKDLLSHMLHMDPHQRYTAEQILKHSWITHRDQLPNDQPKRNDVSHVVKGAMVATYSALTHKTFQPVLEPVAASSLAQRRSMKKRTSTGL
Sequence of Mitogen-activated protein kinase kinase kinase 15 (Homo sapiens) (Q6ZN16 whole entry): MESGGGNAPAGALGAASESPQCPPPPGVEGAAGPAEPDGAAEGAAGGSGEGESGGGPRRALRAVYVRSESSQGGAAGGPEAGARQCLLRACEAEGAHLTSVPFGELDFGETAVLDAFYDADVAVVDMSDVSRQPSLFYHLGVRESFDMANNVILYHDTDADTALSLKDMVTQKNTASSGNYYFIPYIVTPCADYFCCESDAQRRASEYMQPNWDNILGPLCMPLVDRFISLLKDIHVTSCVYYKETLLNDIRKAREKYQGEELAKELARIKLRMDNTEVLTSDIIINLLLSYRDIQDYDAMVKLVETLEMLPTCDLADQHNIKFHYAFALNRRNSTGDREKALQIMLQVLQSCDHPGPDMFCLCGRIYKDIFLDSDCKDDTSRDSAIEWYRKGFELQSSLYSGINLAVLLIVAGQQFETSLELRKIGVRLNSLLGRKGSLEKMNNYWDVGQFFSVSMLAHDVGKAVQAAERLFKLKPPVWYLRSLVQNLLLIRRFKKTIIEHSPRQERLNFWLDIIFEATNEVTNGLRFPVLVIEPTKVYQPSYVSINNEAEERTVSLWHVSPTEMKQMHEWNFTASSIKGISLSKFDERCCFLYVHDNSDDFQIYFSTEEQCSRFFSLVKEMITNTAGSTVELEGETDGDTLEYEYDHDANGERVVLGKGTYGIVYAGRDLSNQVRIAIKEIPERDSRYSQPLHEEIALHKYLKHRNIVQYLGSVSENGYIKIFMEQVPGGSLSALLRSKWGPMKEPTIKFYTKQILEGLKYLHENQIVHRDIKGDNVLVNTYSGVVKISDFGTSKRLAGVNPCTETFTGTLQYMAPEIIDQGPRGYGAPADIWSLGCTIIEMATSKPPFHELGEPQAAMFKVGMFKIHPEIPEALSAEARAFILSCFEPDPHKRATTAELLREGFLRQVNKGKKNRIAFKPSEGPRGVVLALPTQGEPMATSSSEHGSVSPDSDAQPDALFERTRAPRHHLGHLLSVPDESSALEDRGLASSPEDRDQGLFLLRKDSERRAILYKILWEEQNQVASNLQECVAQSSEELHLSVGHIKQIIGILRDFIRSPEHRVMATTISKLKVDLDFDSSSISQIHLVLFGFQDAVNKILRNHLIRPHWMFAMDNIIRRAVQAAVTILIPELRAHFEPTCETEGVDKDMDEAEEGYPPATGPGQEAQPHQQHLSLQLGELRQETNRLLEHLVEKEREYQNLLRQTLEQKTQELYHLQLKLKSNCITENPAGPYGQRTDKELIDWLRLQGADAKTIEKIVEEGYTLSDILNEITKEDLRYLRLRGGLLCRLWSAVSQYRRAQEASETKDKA
Sequence of Serine/threonine-protein kinase ULK1 (Homo sapiens) (O75385 whole entry): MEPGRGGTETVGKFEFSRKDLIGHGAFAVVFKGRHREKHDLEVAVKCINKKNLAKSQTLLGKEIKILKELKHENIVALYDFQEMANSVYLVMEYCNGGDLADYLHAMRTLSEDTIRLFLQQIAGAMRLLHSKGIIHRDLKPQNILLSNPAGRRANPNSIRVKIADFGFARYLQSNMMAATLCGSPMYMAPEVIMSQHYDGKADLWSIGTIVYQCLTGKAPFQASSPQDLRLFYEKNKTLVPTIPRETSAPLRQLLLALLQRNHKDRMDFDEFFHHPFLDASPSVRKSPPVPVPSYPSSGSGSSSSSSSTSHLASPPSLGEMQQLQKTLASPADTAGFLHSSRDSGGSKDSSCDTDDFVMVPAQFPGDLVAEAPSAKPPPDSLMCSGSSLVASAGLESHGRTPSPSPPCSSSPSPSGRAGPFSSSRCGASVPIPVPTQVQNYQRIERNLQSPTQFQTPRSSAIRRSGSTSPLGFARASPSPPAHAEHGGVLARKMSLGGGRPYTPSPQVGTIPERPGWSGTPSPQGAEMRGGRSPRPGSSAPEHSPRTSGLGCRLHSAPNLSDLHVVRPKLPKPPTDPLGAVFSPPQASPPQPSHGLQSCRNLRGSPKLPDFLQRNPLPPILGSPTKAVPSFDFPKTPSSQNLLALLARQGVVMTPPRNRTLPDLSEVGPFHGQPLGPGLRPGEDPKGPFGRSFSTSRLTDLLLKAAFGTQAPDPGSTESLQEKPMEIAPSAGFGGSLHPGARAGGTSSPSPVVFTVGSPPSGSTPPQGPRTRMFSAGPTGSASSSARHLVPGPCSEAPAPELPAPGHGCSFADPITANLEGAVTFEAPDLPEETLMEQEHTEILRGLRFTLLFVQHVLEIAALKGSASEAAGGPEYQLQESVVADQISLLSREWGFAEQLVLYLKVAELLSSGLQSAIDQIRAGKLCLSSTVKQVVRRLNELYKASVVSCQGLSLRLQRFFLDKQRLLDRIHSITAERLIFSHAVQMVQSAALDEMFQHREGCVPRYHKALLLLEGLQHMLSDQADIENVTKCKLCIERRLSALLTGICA
Sequence of Dual specificity protein kinase CLK1 (Homo sapiens) (P49759 whole entry, looked up): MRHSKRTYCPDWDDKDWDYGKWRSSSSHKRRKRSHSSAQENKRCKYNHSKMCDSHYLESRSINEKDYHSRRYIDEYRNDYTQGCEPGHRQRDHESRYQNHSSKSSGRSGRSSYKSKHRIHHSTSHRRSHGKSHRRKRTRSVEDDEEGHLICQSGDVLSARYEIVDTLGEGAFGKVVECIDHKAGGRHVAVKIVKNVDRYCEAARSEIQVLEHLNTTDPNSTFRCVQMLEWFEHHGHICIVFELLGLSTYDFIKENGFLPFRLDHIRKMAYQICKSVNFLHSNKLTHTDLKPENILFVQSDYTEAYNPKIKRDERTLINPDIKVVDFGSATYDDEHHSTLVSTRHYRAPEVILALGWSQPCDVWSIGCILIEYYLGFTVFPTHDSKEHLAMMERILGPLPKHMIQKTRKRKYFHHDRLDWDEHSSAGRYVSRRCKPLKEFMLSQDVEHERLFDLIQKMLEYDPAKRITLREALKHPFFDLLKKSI
Sequence of Tyrosine-protein kinase Yes (Homo sapiens) (P07947 2-543 limits assumed): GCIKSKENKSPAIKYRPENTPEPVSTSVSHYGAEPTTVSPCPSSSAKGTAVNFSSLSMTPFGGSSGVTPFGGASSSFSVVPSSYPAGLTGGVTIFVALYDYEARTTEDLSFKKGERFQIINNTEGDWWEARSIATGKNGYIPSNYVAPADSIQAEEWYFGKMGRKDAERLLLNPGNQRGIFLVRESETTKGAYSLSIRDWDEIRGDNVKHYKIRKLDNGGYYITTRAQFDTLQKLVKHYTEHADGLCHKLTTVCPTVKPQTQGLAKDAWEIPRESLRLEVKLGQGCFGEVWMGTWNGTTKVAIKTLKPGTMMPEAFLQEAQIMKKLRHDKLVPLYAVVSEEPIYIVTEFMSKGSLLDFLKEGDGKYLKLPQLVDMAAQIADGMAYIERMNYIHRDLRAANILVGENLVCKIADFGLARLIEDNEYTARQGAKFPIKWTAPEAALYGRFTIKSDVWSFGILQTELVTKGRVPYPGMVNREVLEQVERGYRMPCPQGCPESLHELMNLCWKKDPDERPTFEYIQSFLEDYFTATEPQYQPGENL
Sequence of Serine/threonine-protein kinase 32A (Homo sapiens) (Q8WU08 whole entry): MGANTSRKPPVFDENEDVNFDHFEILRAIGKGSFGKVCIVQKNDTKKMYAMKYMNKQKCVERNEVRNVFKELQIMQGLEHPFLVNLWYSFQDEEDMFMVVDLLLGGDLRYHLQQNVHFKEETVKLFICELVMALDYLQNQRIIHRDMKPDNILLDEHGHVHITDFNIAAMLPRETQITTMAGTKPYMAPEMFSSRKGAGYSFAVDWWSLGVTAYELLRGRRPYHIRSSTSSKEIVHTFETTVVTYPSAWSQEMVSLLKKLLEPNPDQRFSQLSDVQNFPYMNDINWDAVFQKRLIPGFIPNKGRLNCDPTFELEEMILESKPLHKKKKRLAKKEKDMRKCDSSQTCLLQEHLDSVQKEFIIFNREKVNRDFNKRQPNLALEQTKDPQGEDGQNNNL

With O=c1nc(-c2ccccn2)sc2ccccc12 [BTZO-1] as the compound, how does the Kd [1] read?
Its Kd is > 10000 nM (not active).

What about the Ki [2] of the same compound?
Its Ki is 934 nM.

And the MEC1.5 [3]?
The MEC1.5 was 16 nM.

What about the Kd [4] of the same compound?
Its Kd is 68.6 nM (active).

What about the Kd [5] of the same compound?
The Kd was 157 nM (active).

What about the residual activity [6] of the same compound?
Its residual activity is 99%.

And the residual activity [7]?
Its residual activity is 91%.

What about the residual activity [8] of the same compound?
Its residual activity is 100%.

And the residual activity [9]?
The residual activity was 95%.

What about the residual activity [10] of the same compound?
Its residual activity is 100%.

And the residual activity [11]?
Its residual activity is 100%.

And the residual activity [12]?
Its residual activity is 100%.

And the inhibition [13]?
Its inhibition is -1.33%.

And the inhibition [14]?
The inhibition was 6.23%.

What about the inhibition [15] of the same compound?
Its inhibition is -5.27%.

What about the inhibition [16] of the same compound?
Its inhibition is 12.5%.

And the inhibition [17]?
The inhibition was 14%.

O=C1NC(c2ccccn2)Sc2ccccc21 (configuration not stated) [BTZO-4] was tested. Which Kd [18] did it give?
The Kd was > 10000 nM (not active).

What about the Kd [19] of the same compound?
The Kd was > 10000 nM (not active).

What about the residual activity [6] of the same compound?
The residual activity was 98%.

And the residual activity [7]?
The residual activity was 0%.

And the residual activity [8]?
The residual activity was 85%.

What about the residual activity [9] of the same compound?
Its residual activity is 96%.

And the residual activity [10]?
Its residual activity is 100%.

What about the residual activity [11] of the same compound?
The residual activity was 78%.

And the residual activity [12]?
Its residual activity is 100%.

What about the inhibition [20] of the same compound?
The inhibition was -4.84%.

What about the inhibition [21] of the same compound?
The inhibition was 1.93%.

And the inhibition [22]?
Its inhibition is -5.1%.

What about the inhibition [23] of the same compound?
The inhibition was 49.9%.

And the inhibition [24]?
The inhibition was -9.97%.

And the inhibition [25]?
Its inhibition is -4.7%.

Reference: ChEMBL document CHEMBL4507329, “Data for DCP probe BTZO-1” (2021)
